# d = 2'-deoxy (DNA); m = 2'-O-methyl
# Key:
# Type in all cases: cell-based, human
# XIAP RNA = XIAP RNA knock-down in T24 cells (TaqMan quantitative PCR)
# Excerpt: (§1) We used TaqMan quantitative PCR (described below) to assay for changes in mRNA levels after oligonucleotide treatment. We employed ELISA for determining XIAP protein levels and western blotting for determining HIAP1 protein levels. Transfection conditions were optimized with Lipofectamine plus or Lipofectamine 2000 (Life Technologies, Canada) on T24 bladder carcinoma cells or H460 non-small cell lung carcinoma cells, or lipofectin on SF-295 glioblastoma cells, using a fluorescein-tagged sense oligonucleotide (5′-mGmAGAAGATGACTGGTAAmCmA-3′; SEQ ID NO: 261) from XIAP spanning the start codon as a control. The results were visualized and gauged by epi-fluorescence microscopy. In the case of T24 cells, transfections were further optimized based on the ability of a published oligonucleotide to downregulate survivin expression (Li et al., Nat. Cell Biol. 1:461-466, 1999) (5′-U/TGTGCTATTCTGTGAAU/TU/T-3′ SEQ ID NO: 262). We optimized the transfection conditions based on the TaqMan results of survivin RNA knock-down detected with PCR primers and fluorescent probe, described in detail below. […] We then applied these conditions to screen for XIAP protein knock-down using the oligo library against T24 cells.
# RNA was extracted from cells lysed in RLT buffer (QIAGEN, Valencia, Calif.), and purified using QIAGEN RNeasy columns/kits. Real-time quantitative PCR was performed on a Perkin-Elmer ABI 7700 Prism PCR machine. RNA was reverse transcribed and amplified according to the TaqMan Universal PCR Master Mix protocol of PE Biosystems, using primers and probes designed to specifically recognize XIAP, HIAP1, survivin, or GAPDH. For human survivin, the forward primer was 5′-[…]-3′ (SEQ ID NO: 263), the reverse primer was 5′-GAAAGGAAAGCGCAACCG-3′ (SEQ ID NO: 264), and the probe was 5′-(FAM)[…](TAMRA)-3′ (SEQ ID NO: 265). For human HIAP1, the forward primer was 5′-[…]-3′ (SEQ ID NO: 266), the reverse primer was 5′-[…]-3′ (SEQ ID NO: 267), and the probe was 5′-(FAM)[…](TAMRA)-3′ (SEQ ID NO: 268). For human XIAP, the forward primer was 5′-[…]-3′ (SEQ ID NO: 269), the reverse primer was 5′-[…]-3′ (SEQ ID NO: 270), and the probe was 5′-(FAM)[…](TAMRA)-3′ (SEQ ID NO: 271). For human GAPDH, the forward primer was 5′-GAAGGTGAAGGTCGGAGTC-3′ (SEQ ID NO: 272), the reverse primer was 5′-GAAGATGGTGATGGGATTC-3′ (SEQ ID NO: 273), and the probe was 5′-(JOE)[…](TAMRA)-3′ (SEQ ID NO: 274). FAM is 6-carboxyfluoroscein, JOE is 6-carboxy-4,5-dichloro-2,7-dimethoxyfluoroscein, and TAMRA is 6-carboxy-N,N,N′,N′-tetramethylrhodamine. FAM and JOE are 5′ reporter dyes, while TAMRA is a 3′ quencher dye.
# Relative quantification of gene expression was performed as described in the PE Biosystems manual using GAPDH as an internal standard. The comparative Ct (cycle threshold) method was used for relative quantitation of IAP mRNA levels compared to GAPDH mRNA levels. Briefly, real-time fluorescence measurements were taken at each PCR cycle and the threshold cycle (Ct) value for each sample was calculated by determining the point at which fluorescence exceeded a threshold limit of 30 times the baseline standard deviation. The average baseline value and the baseline SD are calculated starting from the third cycle baseline value and stopping at the baseline value three cycles before the signal starts to exponentially rise. The PCR primers and/or probes for the specific IAPs were designed to span at least one exon-intron boundary separated by 1 kb or more of genomic DNA, to reduce the possibility of amplifying and detecting genomic DNA contamination. The specificity of the signal, and possible contamination from DNA, were verified by treating some RNA samples with either DNase or RNase, prior to performing the reverse transcription and PCR reaction steps.
# The XIAP synthetic library of 96 antisense oligonucleotides was first screened for decreases in XIAP protein levels. […]
# XIAP protein = XIAP protein knock-down in T24 cells (XIAP ELISA, relative to total protein); settings: for XIAP protein levels relative to total protein, compared to mock transfection (in words): first screen of the library
# Excerpt: as §1
# A standard colorimetric XIAP ELISA assay was performed using an affinity-purified rabbit polyclonal antibody to XIAP as a capture antibody, and was detected with a XIAP monoclonal antibody (MBL, Japan) and a biotinylated anti-mouse Ig antibody and horseradish peroxidase-conjugated streptavidin and TMB substrate. Alternatively, a polyclonal XIAP or HIAP1 antibody may be used to measure XIAP or HIAP1 protein levels, respectively.
# The XIAP synthetic library of 96 antisense oligonucleotides was first screened for decreases in XIAP protein levels. Specifically, T24 cells (1.5×10^4 cells/well) were seeded in wells of a 96-well plate on day 1, and were cultured in antibiotic-free McCoy's medium for 24 hours. On day 2, the cells were transfected with XIAP antisense oligonucleotides as described above (oligonucleotides are labeled according to their plated position, i.e., A1 to H12, and include two repeats, A13 and B13 that contain lyophilized DNA pellets that stuck to the sealing membrane). Briefly, the nucleobase oligomers were diluted in 10 μl/well of serum-free, antibiotic-free McCoy's medium and then PLUS reagent was added. Lipofectamine was diluted in 10 μl/well of serum-free, antibiotic-free McCoy's medium, and both mixes were incubated for 15 minutes at room temperature. The mixes were then combined and incubated for 15 minutes at room temperature.
# In the meantime, the complete medium was removed from the cells and 50 μl/well of serum-free, antibiotic-free medium was added to the cells. The transfection mixes were added to the well, and the cells were incubated for three hours. Then 30 μl/well of serum-free, antibiotic-free medium and 100 μl/well of antibiotic-free complete medium, containing 20% fetal bovine serum were added to each well.
# At day 3, XIAP RNA levels were measured using quantitative real-time PCR techniques, as described above. At day 4, XIAP protein levels were measured by ELISA (FIGS. 1A, 1C, 1E, 1G, 1I, and 1K), and total cellular protein was measured biochemically (FIGS. 1B, 1D, 1F, 1H, 1J, and 1L; used to normalize the XIAP protein levels). The results were compared to a mock transfection sample (treated with the transfection agent but no oligonucleotide DNA was added, and then processed as for the other samples). Time course experiments determined that the optimal time for protein knock-down to be around 12 to 24 hours. […]
# XIAP mRNA [1] = assay: XIAP mRNA knock-down in H460 cells (real-time RT-PCR / TaqMan)
# Method in brief: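 NCI-H460 cells transfected with phosphorothioate antisense oligonucleotides via Lipofectamine 2000; RNA isolated after 6 h treatment. XIAP mRNA quantified by one-step TaqMan real-time RT-PCR, comparative Ct (threshold 30× baseline SD), normalized to GAPDH and expressed relative to untreated control cells.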
# [2] = test system: T24 bladder carcinoma cells; assay: T24 cell viability and chemosensitization (WST-1 tetrazolium dye assay); settings: adriamycin 0.5 μg/ml for 20 hours after transfection, vs oligonucleotide alone
# Procedure: T24 cells were transfected with XIAP antisense oligonucleotides, scrambled oligonucleotides, no oligonucleotides (mock transfected), or were left untreated. The cells were tested for viability 20 hours after transfection (with the exception of the untreated control) using the WST-1 tetrazolium dye assay in which WST-1 tetrazolium dye is reduced to a colored formazan product in metabolically active cells (FIG. 5A).
# To examine the effects of the nucleobase oligomers on the chemosensitization of the T24 cells to cisplatin or adriamycin, oligonucleotides were tested for their ability to further kill T24 cells in the presence of a fixed dose of adriamycin (0.5 μg/ml). Cells were first transfected with a oligonucleotide, then adriamycin was added for another 20 hours. Viability was measured by WST-1 at the end of the 20-hour drug treatment (FIG. 5B). Results are shown in FIG. 5C as percentage viability compared to nucleobase oligomer treatment alone.
# [3] = test system: T24 bladder carcinoma cells; assay: Total cellular protein in transfected T24 cells; settings: first screen
# Procedure: At day 3, XIAP RNA levels were measured using quantitative real-time PCR techniques, as described above. At day 4, XIAP protein levels were measured by ELISA (FIGS. 1A, 1C, 1E, 1G, 1I, and 1K), and total cellular protein was measured biochemically (FIGS. 1B, 1D, 1F, 1H, 1J, and 1L; used to normalize the XIAP protein levels). The results were compared to a mock transfection sample (treated with the transfection agent but no oligonucleotide DNA was added, and then processed as for the other samples). Time course experiments determined that the optimal time for protein knock-down to be around 12 to 24 hours.
# These nucleobase oligomers were also examined for their ability to decrease XIAP mRNA levels at 12 hours, normalized against GAPDH levels, and compared to mock transfection. Total protein concentrations at 12 hours were also determined (FIG. 2C).
# XIAP mRNA [4] = assay: XIAP mRNA knock-down in H460 cells (real-time RT-PCR / TaqMan); settings: 2 × 2 MBO; NCI-H460 cells, 9 hours post-transfection; relative level (mock control 1.01)
Sequence,XIAP down-regulation T24 RNA (XIAP RNA),XIAP down-regulation T24 protein (XIAP protein),"XIAP protein levels relative to total protein, compared to mock transfection (in words) (XIAP protein)",XIAP down-regulation H460 RNA (XIAP mRNA [1]),further drop in survival with adriamycin [2],total protein (toxic or cytostatic effect) [3],XIAP RNA (XIAP mRNA [4])
"GATTCACTTCGAATATTAA (sugars from the 5' end m2 d15 m2, linkages s1 o16 s1 (s phosphorothioate, o phosphodiester), methylation of C not given here) [Code D7]",56%,88%,some decrease,46%,40%,,
"AGTTAAATGAATATTGTTT (antisense; sugars from the 5' end m2 d15 m2, backbone and T or U not given here; further chemistry not fully specified) [Code B9]",,,no relative drop,38%,,clear drop,0.74
"GACACTCCTCAAGTGAATG (antisense; sugars from the 5' end m2 d15 m2, backbone, methylation of C and T or U not given here; further chemistry not fully specified) [Code C9]",,,no relative drop,,,clear drop,
"ATCTTCTCTTGAAAATAGG (sugars from the 5' end m2 d15 m2, linkages s1 o16 s1 (s phosphorothioate, o phosphodiester), T or U not given here) [Code F3]",44%,53%,some decrease,,40%,,

# Source: US8012944B2, “Method for treating cancer using IAP antisense oligomer and chemotherapeutic agent” (Pharmascience Inc., priority 2003, dated 2011)
